Data reported in patent US20260207600A1, “METHODS OF TREATMENT WITH MYOSIN MODULATOR” (MYOKARDIA, INC., priority 2019, published 2026).
“Also recorded” adds a separate entry of the source. Like-named read-outs stand apart in the source and are kept apart here.

What was measured:
CYP2C9 = CYP2C9 (Homo sapiens, UniProt P11712); assay: In vitro contribution of CYP enzymes to mavacamten metabolism; type: in vitro ADME
CYP2J2 = target: T1, CYP2J2 (Homo sapiens, UniProt P51589); assay: as above; type: in vitro ADME
T1 sequence (P51589 1-502): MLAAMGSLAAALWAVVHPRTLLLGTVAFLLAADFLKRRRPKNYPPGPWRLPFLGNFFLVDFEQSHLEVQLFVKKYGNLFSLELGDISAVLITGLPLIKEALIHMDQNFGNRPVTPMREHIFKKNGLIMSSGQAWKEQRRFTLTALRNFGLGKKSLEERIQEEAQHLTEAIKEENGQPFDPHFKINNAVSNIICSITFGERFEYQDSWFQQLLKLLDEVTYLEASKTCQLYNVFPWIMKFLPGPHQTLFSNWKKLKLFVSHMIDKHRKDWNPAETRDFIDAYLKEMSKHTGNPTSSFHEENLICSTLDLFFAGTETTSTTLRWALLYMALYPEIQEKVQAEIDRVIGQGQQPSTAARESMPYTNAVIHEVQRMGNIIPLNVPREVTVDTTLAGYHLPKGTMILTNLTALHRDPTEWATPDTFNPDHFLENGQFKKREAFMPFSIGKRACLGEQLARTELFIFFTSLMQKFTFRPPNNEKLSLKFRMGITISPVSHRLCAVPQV

[1] = Half-life and clearance analysis from early clinical studies by CYP2C19 metabolizer phenotype; type: in vivo, human; settings: for half-life / clearance: oral; for clearance: read-out: clearance rate
Experimental: The effect of CYP2C19 phenotype and genotype on the metabolism function of the CYP2C19 enzyme has been presently investigated. […] Specifically, normal metabolizers typically have a half-life of from about 6 to about 9 days, e.g., about 7 days (1 week), whereas poor metabolizers have a longer half-life, e.g., from about 12 to about 30 days, or often from about 16 to about 28 days based on current data in humans.
Half-life and clearance rate were analyzed after a single oral dose. Clearance rate was calculated as CL=Dose*F/AUCinf. […] Half-life and clearance rate were analyzed after the last dose upon reaching steady state. Clearance rate was calculated as CL,ss=Dose*F/AUC(0-T). Both trials were combined and analyzed by one-way ANOVA, followed by Tukey's multiple comparison test.
UM (rapid/ultra-rapid metabolizer) is *1/*17 or *17/*17; EM (extensive metabolizer) is *1/*1; IM (intermediate metabolizer) is *1/*2 or *17/*2; and PM (poor metabolizer) is *2/*2 or *2/*3.
Similar studies were performed for CYP3A5 and CYP2C9 polymorphisms.

[2] = Stable form analysis (slurry experiments, XRPD); type: physicochemical; settings: for XRPD Result (stable form screening): Lot 2-4
Experimental: Slurrying. Slurries of the API were prepared by adding sufficient solids to a given solvent or solvent system at ambient conditions or at elevated temperature such that undissolved solids were present. The mixtures were then agitated in a closed vial at ambient or elevated temperature for an extended period of time. Solids were collected by vacuum filtration and analyzed.
A stable form analysis of the API (Lot 2-4) was performed to identify the preferred solid form within typical process conditions (e.g., ambient to 85° C., atmospheric pressure, with a variety of solvents including water).
A total of 17 slurries were held stirring at ambient temperature or with temperature cycling between 20 and 30 or 40° C. (with a few brief exposures to approximately 46° C.) for extended time periods (Table 13.4). Solids from the slurry experiments were filtered, air-dried, then analyzed by XRPD.

[3] = tested on: conscious fully-instrumented dogs with normal cardiac function; assay: Acute β-AR (dobutamine) challenge after mavacamten in conscious instrumented dogs; type: in vivo, dog
Experimental: In addition, the effects of MAVA (at 1.5 mg/kg PO, via gavage) on cardiac reserve were evaluated via acute β-AR challenges (dobutamime: 2, 5, and 10 ug/kg/min IV) in conscious fully-instrumented (LVPV group) dogs with normal cardiac function (n=8). These challenges were performed before/after dosing (+3-hour) in control- and MAVA-treated animals both under normal cardiac physiological conditions (n=4) and under (mild) concomitant cardio-depression induced via either selective β-AR blockade (+BB, metoprolol 0.5±0.1 mg/kg PO tid; n=4) or L-type Ca2+-channel blockade (+CCB, verapamil at 5±1 mg/kg PO tid; n=4); pharmacological blockades were established for 7 days prior to the MAVA treatment. Both peak and dose-responses were evaluated at steady state.
Throughout these experiments, analog signals were digitally acquired (1000 Hz) and recorded continuously with a data acquisition/analysis system (IOX; EMKA Technologies). Heart rate (HR), end-systolic (ESP) and end-diastolic pressures (EDP), as well as the peak rates of pressure rise/decline (dP/dtmax and dP/dtmin), the contractility index (CI: dP/dt/P at dP/dtmax), and the time-constant of myocardial relaxation (tau½, time for 50% decay from dP/dtmin) were derived from the LV pressure signal. Meanwhile, the end-systolic (ESV) and end-diastolic volumes (EDV) were measured from the LV volume signal derived from the implanted myocardial crystals. LV volumes were derived assuming a Teichholz model, and stroke volume (SV=EDV−ESV), ejection fraction (EF=SV/EDV), as well as cardiac output (CO=SV·HR) were calculated; in a subset of animals, SV and CO values were verified from data derived from the implanted aortic flow proble. […] The slopes of the preload-recruitable stroke work (PRSW; stroke work vs. EDV) and the end-systolic pressure-volume relationships (ESPVR; end-systolic elastance, Ees) were derived by software using linear models (IOX; EMKA Technologies), and were used as load-independent inotropic indices. Ventricular load was estimated by the effective arterial elastance (Ea=ESP/SV). […]

CYP2C19 = CYP2C19 (Homo sapiens, UniProt P33261); assay: In vitro contribution of CYP enzymes to mavacamten metabolism; type: in vitro ADME
Chain of CYP2C19 (P33261 whole entry): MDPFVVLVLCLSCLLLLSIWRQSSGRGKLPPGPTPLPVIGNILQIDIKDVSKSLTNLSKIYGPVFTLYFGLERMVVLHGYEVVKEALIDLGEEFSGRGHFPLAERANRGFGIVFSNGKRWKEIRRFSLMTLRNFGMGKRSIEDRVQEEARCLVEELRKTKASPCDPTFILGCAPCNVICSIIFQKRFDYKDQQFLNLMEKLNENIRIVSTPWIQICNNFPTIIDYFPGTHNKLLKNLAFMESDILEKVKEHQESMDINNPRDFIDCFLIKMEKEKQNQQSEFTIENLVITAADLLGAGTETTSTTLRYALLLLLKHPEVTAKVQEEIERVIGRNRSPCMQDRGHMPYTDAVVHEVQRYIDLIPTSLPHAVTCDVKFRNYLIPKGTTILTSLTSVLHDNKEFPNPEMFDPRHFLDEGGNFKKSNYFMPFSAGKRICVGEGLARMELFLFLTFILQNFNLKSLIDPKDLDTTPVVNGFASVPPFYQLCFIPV

[4] = human, in vivo, CYP2C19 normal metabolizers
[5] = human, in vivo, CYP2C19 poor metabolizers

Chain of CYP2C9 (P11712 whole entry): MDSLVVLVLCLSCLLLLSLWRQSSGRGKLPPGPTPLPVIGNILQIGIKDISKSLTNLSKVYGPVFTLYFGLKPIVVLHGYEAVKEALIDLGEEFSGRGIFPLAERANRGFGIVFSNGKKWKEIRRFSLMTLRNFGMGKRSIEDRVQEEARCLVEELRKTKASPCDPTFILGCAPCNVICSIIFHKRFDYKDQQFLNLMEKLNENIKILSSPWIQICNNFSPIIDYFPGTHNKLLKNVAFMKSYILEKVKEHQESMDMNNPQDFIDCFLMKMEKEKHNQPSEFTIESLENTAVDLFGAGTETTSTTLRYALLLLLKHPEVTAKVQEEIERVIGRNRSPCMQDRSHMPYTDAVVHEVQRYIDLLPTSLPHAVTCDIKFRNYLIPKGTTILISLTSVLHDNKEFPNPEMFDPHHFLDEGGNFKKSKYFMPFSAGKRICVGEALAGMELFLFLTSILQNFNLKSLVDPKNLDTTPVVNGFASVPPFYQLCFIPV

Which results are given for `CC(C)n1c(=O)cc(N[C@@H](C)c2ccccc2)[nH]c1=O` [mavacamten, (S)-3-Isopropyl-6-((1-phenylethyl)amino)pyrimidine-2, 4(1H,3H)-dione]?
percent contribution to the metabolism of mavacamten (CYP2C9): 7.5%; percent contribution to the metabolism of mavacamten (CYP2J2): negligible; clearance and terminal half-life by phenotype ([1]; CYP2C19 poor metabolizers vs other patients (UM, EM and IM)): lower clearance and longer terminal half-life; increase in exposure ([1]; PM genotype compared to normal CYP 2C19 metabolizer (NM) genotype): approximately 4 fold; effect of CYP3A4/5 (CYP3A5) and CYP2C9 polymorphisms on pharmacokinetics (half-life, clearance rate) ([1]; human, in vivo): insignificant effects; also recorded: did not have a significant effect; half-life [1, 4]: 6 to 9 days; clearance [1, 4]: 10 to 100 mL/min; half-life [1, 5]: 12 to 30 days; clearance [1, 5]: < 15 mL/min; solid form obtained from slurry experiments (XRPD) ([2]; 17 slurries, ambient temperature or cycling between 20 and 30 or 40° C., extended time): All slurry experiments yielded Form A, except one with chloroform; XRPD Result (stable form screening) ([2]; Anisole, Slurry, ~50° C., 4 d): Form A; XRPD Result (stable form screening) ([2]; CHCl3, TC, 20 to 30° C., 10 d): Form A +; XRPD Result (stable form screening) ([2]; DCM, Slurry, RT, 17 d): Form A; XRPD Result (stable form screening) ([2]; DMF:CHCl3 (20:80), Slurry, RT, 17 d): Form A; XRPD Result (stable form screening) ([2]; DMF:EtOH (20:80), Slurry, RT, 17 d): Form A; XRPD Result (stable form screening) ([2]; DMSO:water (90:10), Slurry, RT, 3 d, TC, 20 to 30° C., 10 d): Form A; XRPD Result (stable form screening) ([2]; EtOAc, TC 20 to 40° C., 10 d): Form A; XRPD Result (stable form screening) ([2]; EtOH, TC 20 to 40° C., 10 d): Form A; XRPD Result (stable form screening) ([2]; HFIPA:acetone (10:90), Slurry, RT, 17 d): Form A; XRPD Result (stable form screening) ([2]; MIBK, Slurry, ~80° C., 1 d): Form A; XRPD Result (stable form screening) ([2]; MeOH, Slurry, RT, 3 d, TC, 20 to 30° C., 10 d): Form A; XRPD Result (stable form screening) ([2]; NMP:MeOH (10:90), Slurry, RT, 17 d): Form A; XRPD Result (stable form screening) ([2]; NMP:toluene (80:20), Slurry, RT, 17 d): Form A; XRPD Result (stable form screening) ([2]; NMP:water (50:50), Slurry, RT, 17 d): Form A; XRPD Result (stable form screening) ([2]; THF:water (75:25), TC, 20 to 30° C., 10 d): Form A; XRPD Result (stable form screening) ([2]; THF, Slurry, RT, 3 d, TC, 20 to 40° C., 10 d): Form A; XRPD Result (stable form screening) ([2]; iPrOH, TC, 20 to 40° C., 10 d): Form A; β-AR induced acceleration of tau ([3]; at any given dP/dtmax gain): enhanced the β-AR induced acceleration of tau; dobutamine-triggered stroke-volume/cardiac output recruitments ([3]; before (control) vs under acute mavacamten treatment): comparable stroke-volume/cardiac output recruitments; β-AR elevations in dP/dtmax and CI ([3]; dobutamine challenge): blunted β-AR elevations in dP/dtmax and CI; percent contribution to the metabolism of mavacamten (CYP2C19): 74%
